Assay results from patent US20240026300A1, “KIDNEY EXTRACELLULAR MATRIX-DERIVED SCAFFOLD FOR CULTURE AND TRANSPLANTATION OF KIDNEY ORGANOID AND METHOD OF PREPARING THE SAME” (CELLARTGEN INC., priority 2020, published 2024).

Test system: mouse kidney organoid
Test: Kidney fibrosis model by TGF-β treatment of kidney organoid
Format: cell-based
Description: A kidney fibrosis model was constructed using a kidney organoid cultured in the KEM hydrogel. To this end, kidney fibrosis was induced by treatment of a mouse kidney organoid with TGF-b. On day 9 of kidney organoid culture (subculture once on day 7 and additional culture for 2 days), the kidney organoids were treated with each concentration of TGF-β for 3 days and then analyzed on day 12. A kidney organoid not treated with TGF-β (NT, No treatment) was compared as a control group.

TGF-β
Acta2 and Colla1 (fibrosis markers) mRNA expression levels, qPCR (TGF-β for 3 days, analyzed day 12): increased in proportion to the increase in treatment concentration
kidney organoid morphology and growth (each concentration of TGF-β for 3 days, analyzed day 12): exhibited morphological changes and did not grow well
hydrogel and organoid appearance after TGF-β (organoid cultured in 7 mg/ml KEM hydrogel): the KEM hydrogel contracted and fibrosis-induced organoids agglomerated in a mass
Vimentin, COL1, α-SMA (fibrosis markers) expression, immunostaining (organoids in Matrigel and KEM scaffolds): expression of all fibrosis markers was increased
